According to US12570685B2, “2-methoxyestradiol derivatives and medical uses thereof” (INSTITUT PASTEUR KOREA, priority 2019, dated 2026):

System: HUVECs
Assay: Radiation-induced EndMT / stress fiber phenomic screening in HUVECs using the HCS system
Assay type: cell-based, human
Conditions: 48 hours, compared to IR (control) treated group; for Stress Fiber Pre-: HUVECs pre-treated 1 hour before radiation; for Stress Fiber Pre- / Stress Fiber Post-: Phalloidin; for Stress Fiber Post-: HUVECs treated after 10 Gy irradiation (3 hours)
Experimental: We established a phenomic screening platform to measure radiation-induced stress fibers and optimized the conditions for high-throughput screening using HUVEC cells to develop compounds targeting RIPF. […] 2-ME derivatives were prepared and their anti-fibrotic activities were tested in vitro [Table 3] and in vivo mouse models [FIGS. 1 and 2]. […] In this test, HUVECs were pre-treated with 2-ME derivatives at 1 hour before radiation and irradiated with 10 Gy. After 48 hours, HUVECs stained with Phalloidin and Hoechst to assess morphological changes Collagen type 1 (BD Collagen I, 354236, Thermo Fisher Scientific) was diluted in 70% ethanol, and then the collagen solution (400 μg/ml) was dispensed into each 384-well plate (6007550, Perkin Elmer, MA, US). After a 1-hour incubation at room temperature, the wells were rinsed twice with Dulbecco's phosphate-buffered saline. HUVECs were seeded at a density of 7×10^2 cells per well onto collagen-coated, 384-well plates and allowed to attach in complete growth media. Cells were then exposed to 10 Gy radiation at room temperature. After irradiation, the cells were incubated for an additional 3 hours. The compounds were tested at a final concentration of 10 μM in 0.5% dimethyl sulfoxide (DMSO; v/v) using an automated liquid handling system (Hummingbird, Analytik Jena, Jena, DE). After the 48-hour treatment, cells were fixed with 4% paraformaldehyde (w/v). The expression of actin filament was determined by incubation with 488-Phalloidin (1:100, MOP-[…], Thermo Fisher Scientific) using direct immunofluorescence staining. The nuclei were stained using Hoechst 33342 (1:1000, MOP-H3570, Thermo Fisher Scientific) at room temperature. For assay validation, a control run was performed. The low control consisted of three 384-well plates that contained irradiated cells, and the high control consisted of three 384-well plates that contained non-irradiated cells. For detecting and visualizing filamentous actin (F-actin) and nuclei, images were collected using an automated high-content imaging system with a 20× magnifying objective (Operetta, PerkinElmer). The acquired images were analyzed using an in-house software tool and Harmony 3.5.1® high-content imaging (Harmony, PerkinElmer) for segmentation of cells.

SMILES	Stress Fiber Pre- (10 Gy)	Stress Fiber Post- (10 μM)	Cell number (HUVECs, 10 Gy, 10 μM)
CCC(=O)Oc1cc2c(cc1OC)C1CC[C@@]3(C)C(CC[C@@H]3O)C1CC2 (stereo partly shown) [compound 11]	O (there were stress fiber decreasing more than 20% compare to IR (control) treated group)	O (there were stress fiber decreasing more than 20% compare to IR (control) treated group)	
COc1cc2c(cc1O)CCC1C2CC[C@]2(C)C(=O)C=CC12 (stereo partly shown) [compound 2]			X (there were more than 10% changes in the cell number compare to IR (control) treated group)
COc1cc2c(cc1OC(C)=O)CCC1C2CC[C@@]2(C)C1CC[C@@H]2OC(C)=O (stereo partly shown) [compound 5]	O (there were stress fiber decreasing more than 20% compare to IR (control) treated group)		
CCC(=O)Oc1cc2c(cc1OC)C1CC[C@@]3(C)C(CC[C@@H]3OC(=O)CC)C1CC2 (stereo partly shown) [compound 6]	O (there were stress fiber decreasing more than 20% compare to IR (control) treated group)		
COc1cc2c(cc1OC(C)=O)CCC1C2CC[C@@]2(C)C1CC[C@@H]2O (stereo partly shown) [compound 10]	O (there were stress fiber decreasing more than 20% compare to IR (control) treated group)	O (there were stress fiber decreasing more than 20% compare to IR (control) treated group)	
